Calls of active or inactive are those of the source. The rule behind the calls is not given here.
Tests used:
Mus musculus [1] = experiment: Neurotoxicity in mouse at 30 mg/kg, ip after 4 hrs by rotarod test; assay type: toxicity, organism-based; parameters: dose 30 mg/kg, route intraperitoneal; details: in vivo
Mus musculus [2] = experiment: Neurotoxicity in mouse at 100 mg/kg, ip after 0.5 hrs by rotarod test; assay type: toxicity, organism-based; parameters: dose 100 mg/kg, route intraperitoneal; details: in vivo
Mus musculus [3] = experiment: Neurotoxicity in mouse at 100 mg/kg, ip after 4 hrs by rotarod test; assay type: toxicity, organism-based; parameters: dose 100 mg/kg, route intraperitoneal; details: in vivo
Mus musculus [4] = experiment: Neurotoxicity in mouse at 300 mg/kg, ip after 4 hrs by rotarod test; assay type: toxicity, organism-based; parameters: dose 300 mg/kg, route intraperitoneal; details: in vivo
Rattus norvegicus [5] = experiment: Anticonvulsant activity against maximal electroshock-induced seizures in rat at 30 mg/kg, po after 0.25 hrs; assay type: functional, organism-based; parameters: dose 30 mg/kg
Rattus norvegicus [6] = experiment: Anticonvulsant activity against maximal electroshock-induced seizures in rat at 30 mg/kg, po after 0.5 hrs; assay type: functional, organism-based; parameters: dose 30 mg/kg
Rattus norvegicus [7] = experiment: Anticonvulsant activity against maximal electroshock-induced seizures in rat at 30 mg/kg, po after 1 hr; assay type: functional, organism-based; parameters: dose 30 mg/kg
Rattus norvegicus [8] = experiment: Anticonvulsant activity against maximal electroshock-induced seizures in rat at 30 mg/kg, po after 2 hrs; assay type: functional, organism-based; parameters: dose 30 mg/kg
Rattus norvegicus [9] = experiment: Anticonvulsant activity against maximal electroshock-induced seizures in rat at 30 mg/kg, po after 4 hrs; assay type: functional, organism-based; parameters: dose 30 mg/kg
Rattus norvegicus [10] = experiment: Neurotoxicity in rat at 30 mg/kg, po after 0.25 hrs by rotarod test; assay type: toxicity, organism-based; parameters: dose 30 mg/kg, route oral; details: in vivo
Rattus norvegicus [11] = experiment: Neurotoxicity in rat at 30 mg/kg, po after 0.5 hrs by rotarod test; assay type: toxicity, organism-based; parameters: dose 30 mg/kg, route oral; details: in vivo
Rattus norvegicus [12] = experiment: Neurotoxicity in rat at 30 mg/kg, po after 1 hr by rotarod test; assay type: toxicity, organism-based; parameters: dose 30 mg/kg, route oral; details: in vivo
Rattus norvegicus [13] = experiment: Neurotoxicity in rat at 30 mg/kg, po after 2 hrs by rotarod test; assay type: toxicity, organism-based; parameters: dose 30 mg/kg, route oral; details: in vivo
Rattus norvegicus [14] = experiment: Neurotoxicity in rat at 30 mg/kg, po after 4 hrs by rotarod test; assay type: toxicity, organism-based; parameters: dose 30 mg/kg, route oral; details: in vivo
Mus musculus [15] = experiment: Anticonvulsant activity against maximal electroshock-induced seizures in mouse at 30 mg/kg, ip after 0.5 hrs; assay type: functional, organism-based; parameters: dose 30 mg/kg
Mus musculus [16] = experiment: Anticonvulsant activity against maximal electroshock-induced seizures in mouse at 30 mg/kg, ip after 4 hrs; assay type: functional, organism-based; parameters: dose 30 mg/kg
Mus musculus [17] = experiment: Anticonvulsant activity against maximal electroshock-induced seizures in mouse at 100 mg/kg, ip after 4 hrs; assay type: functional, organism-based; parameters: dose 100 mg/kg
Mus musculus [18] = experiment: Anticonvulsant activity against maximal electroshock-induced seizures in mouse at 300 mg/kg, ip after 0.5 hrs; assay type: functional, organism-based; parameters: dose 300 mg/kg
Mus musculus [19] = experiment: Anticonvulsant activity against maximal electroshock-induced seizures in mouse at 300 mg/kg, ip after 4 hrs; assay type: functional, organism-based; parameters: dose 300 mg/kg
Mus musculus [20] = experiment: Anticonvulsant activity against scMet-induced seizures in mouse at 100 mg/kg, ip after 4 hrs; assay type: functional, organism-based; parameters: dose 100 mg/kg
Mus musculus [21] = experiment: Anticonvulsant activity against scMet-induced seizures in mouse at 30 mg/kg, ip after 0.5 hrs; assay type: functional, organism-based; parameters: dose 30 mg/kg
Mus musculus [22] = experiment: Anticonvulsant activity against scMet-induced seizures in mouse at 30 mg/kg, ip after 4 hrs; assay type: functional, organism-based; parameters: dose 30 mg/kg
Mus musculus [23] = experiment: Anticonvulsant activity against scMet-induced seizures in mouse at 100 mg/kg, ip after 0.5 hrs; assay type: functional, organism-based; parameters: dose 100 mg/kg
Mus musculus [24] = experiment: Anticonvulsant activity against scMet-induced seizures in mouse at 300 mg/kg, ip after 0.5 hrs; assay type: functional, organism-based; parameters: dose 300 mg/kg
Mus musculus [25] = experiment: Anticonvulsant activity against scMet-induced seizures in mouse at 300 mg/kg, ip after 4 hrs; assay type: functional, organism-based; parameters: dose 300 mg/kg
Mus musculus [26] = experiment: Anticonvulsant activity against scMet-induced seizures in ip dosed mouse; assay type: functional
Mus musculus [27] = species on record: Mus musculus; experiment: Protective index, ratio of TD50 for mouse by rotarod test to ED50 for mouse by scMET test; assay type: functional
[28] = Displacement of [3H]nitrendipine from voltage-dependent calcium channel in rat brain cortex by scintillation counting; assay type: tissue-based
[29] = Displacement of [3H]flunitrazepam from benzodiazepine receptor in rat brain cortex by scintillation counting; assay type: tissue-based
Mus musculus [30] = experiment: Neurotoxicity in mouse at 30 mg/kg, ip after 0.5 hrs by rotarod test; assay type: toxicity, organism-based; parameters: dose 30 mg/kg, route intraperitoneal; details: in vivo
Mus musculus [31] = experiment: Neurotoxicity in mouse at 30 mg/kg, ip after 1 hr by rotarod test; assay type: toxicity, organism-based; parameters: dose 30 mg/kg, route intraperitoneal; details: in vivo
Mus musculus [32] = experiment: Neurotoxicity in mouse at 100 mg/kg, ip after 1 hr by rotarod test; assay type: toxicity, organism-based; parameters: dose 100 mg/kg, route intraperitoneal; details: in vivo
Mus musculus [33] = experiment: Neurotoxicity in mouse at 300 mg/kg, ip after 0.5 hrs by rotarod test; assay type: toxicity, organism-based; parameters: dose 300 mg/kg, route intraperitoneal; details: in vivo
Mus musculus [34] = experiment: Anticonvulsant activity against maximal electroshock-induced seizures in mouse at 100 mg/kg, ip after 0.5 hrs; assay type: functional, organism-based; parameters: dose 100 mg/kg

SMILES: CC(C)(CCO)NCc1ccc2oc3cc(Cl)ccc3c(=O)c2c1
- Neurotoxicity (Mus musculus [1]): Not Active
- Neurotoxicity (Mus musculus [2]): Not Active
- Neurotoxicity (Mus musculus [3]): Not Active
- Neurotoxicity (Mus musculus [4]): Not Active
- Activity (Rattus norvegicus [5]): inactive
- Activity (Rattus norvegicus [6]): inactive
- Activity (Rattus norvegicus [7]): inactive
- Activity (Rattus norvegicus [8]): inactive
- Activity (Rattus norvegicus [9]): inactive
- Neurotoxicity (Rattus norvegicus [10]): Not Active
- Neurotoxicity (Rattus norvegicus [11]): Not Active
- Neurotoxicity (Rattus norvegicus [12]): Not Active
- Neurotoxicity (Rattus norvegicus [13]): Not Active
- Neurotoxicity (Rattus norvegicus [14]): Not Active
- Activity (Mus musculus [15]): inactive
- Activity (Mus musculus [16]): inactive
- Activity (Mus musculus [17]): inactive
- Activity (Mus musculus [18]): Active
- Activity (Mus musculus [19]): inactive
- Activity (Mus musculus [20]): inactive
- Activity (Mus musculus [21]): inactive
- Activity (Mus musculus [22]): inactive
- Activity (Mus musculus [23]): inactive
- Activity (Mus musculus [24]): inactive
- Activity (Mus musculus [25]): inactive

SMILES: NC(=O)N1c2ccccc2C=Cc2ccccc21 [CARBAMAZEPINE]
- ED50 (Mus musculus [26]): > 50 mg/kg
- PI (Mus musculus [27]): <1
- EC50 [28]: 1200 nM

SMILES: CN1C(=O)CN=C(c2ccccc2)c2cc(Cl)ccc21 [DIAZEPAM]
- EC50 [29]: 700 nM

SMILES: Cl.O=c1c2ccc(Cl)cc2oc2ccc(CNCCCO)cc12
- Neurotoxicity (Mus musculus [30]): Not Active
- Neurotoxicity (Mus musculus [31]): Not Active
- Neurotoxicity (Mus musculus [1]): Not Active
- Neurotoxicity (Mus musculus [32]): Not Active
- Neurotoxicity (Mus musculus [3]): Not Active
- Neurotoxicity (Mus musculus [33]): Neurotoxic
- Neurotoxicity (Mus musculus [4]): Neurotoxic
- Activity (Rattus norvegicus [5]): inactive
- Activity (Rattus norvegicus [6]): inactive
- Activity (Rattus norvegicus [7]): inactive
- Activity (Rattus norvegicus [8]): inactive
- Activity (Rattus norvegicus [9]): inactive
- Neurotoxicity (Rattus norvegicus [10]): Not Active
- Neurotoxicity (Rattus norvegicus [11]): Not Active
- Neurotoxicity (Rattus norvegicus [12]): Not Active
- Neurotoxicity (Rattus norvegicus [13]): Not Active
- Neurotoxicity (Rattus norvegicus [14]): Not Active
- Activity (Mus musculus [15]): inactive
- Activity (Mus musculus [16]): inactive
- Activity (Mus musculus [34]): inactive
- Activity (Mus musculus [17]): inactive
- Activity (Mus musculus [18]): Active
- Activity (Mus musculus [19]): inactive
- Activity (Mus musculus [20]): inactive
- Activity (Mus musculus [21]): inactive
- Activity (Mus musculus [22]): inactive
- Activity (Mus musculus [23]): inactive
- Activity (Mus musculus [24]): inactive
- Activity (Mus musculus [25]): inactive
